Test results published in ChEMBL document CHEMBL1615345, “Evaluation of a published in silico model and construction of a novel Bayesian model for predicting phospholipidosis inducing potential” (J Chem Inf Model, 2007).
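Note: phospholipidosis status taken from published literature.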

These compounds were tested on Phospholipidosis.
In the case of `CC(NC(C)(C)C)C(=O)c1cccc(Cl)c1` (centres undefined) [BUPROPION], the Phospholipidosis is reported as “Not Active”.
For `ClC(Cl)(Cl)Cl` [CARBON TETRACHLORIDE], the Phospholipidosis was “Not Active”.
With `CCOC(=O)C(C)(C)Oc1ccc(Cl)cc1` [CLOFIBRATE] the Phospholipidosis was “Not Active”.
With `CCN1CC(CCN2CCOCC2)C(c2ccccc2)(c2ccccc2)C1=O` (centres undefined) [DOXAPRAM] the Phospholipidosis was “Not Active”.
`O=C(O)c1cc(-c2ccc(F)cc2F)ccc1O` [DIFLUNISAL] was tested, and the Phospholipidosis was “Not Active”.
For `COc1cc2c(cc1OC)C(=O)C(CC1CCN(Cc3ccccc3)CC1)C2` (centres undefined) [DONEPEZIL], the Phospholipidosis was “Not Active”.
With `NC(=O)N1c2ccccc2C=Cc2ccccc21` [CARBAMAZEPINE] the Phospholipidosis was “Not Active”.
In the case of `O=C(O)CCCCCCNC1c2ccccc2CCc2ccccc21` [AMINEPTINE], the Phospholipidosis is reported as “Not Active”.
With `CC1=C(CC(=O)O)c2cc(F)ccc2/C1=C\c1ccc([S+](C)[O-])cc1` (centres undefined) the Phospholipidosis was “Not Active”.
`ClC(Cl)Cl` [CHLOROFORM] was tested, and the Phospholipidosis was “Not Active”.
With `O=C1CN(/N=C/c2ccc(-c3ccc([N+](=O)[O-])cc3)o2)C(O)=N1` [DANTROLENE] the Phospholipidosis was “Not Active”.
For `CC(=O)Nc1ccc(O)cc1` [ACETAMINOPHEN], the Phospholipidosis was “Not Active”.
For `Cn1c(=O)c2c(ncn2C)n(C)c1=O` [CAFFEINE], the Phospholipidosis was “Not Active”.
With `CCC1(c2ccccc2)C(=O)NC(=O)NC1=O` [PHENOBARBITAL] the Phospholipidosis was “Not Active”.
In the case of `Cc1cn([C@H]2C=C[C@@H](CO)O2)c(=O)[nH]c1=O` [STAVUDINE], the Phospholipidosis is reported as “Not Active”.
For `CN(C)[C@@H]1C(O)=C(C(N)=O)C(=O)[C@@]2(O)C(O)=C3C(=O)c4c(O)ccc(Cl)c4[C@@H](O)[C@H]3C[C@@H]12` [DEMECLOCYCLINE], the Phospholipidosis was “Not Active”.
`CN(C)[C@@H]1C(O)=C(C(N)=O)C(=O)[C@@]2(O)C(O)=C3C(=O)c4c(O)ccc(Cl)c4[C@@](C)(O)[C@H]3C[C@@H]12` [CHLORTETRACYCLINE] was tested, and the Phospholipidosis was “Not Active”.
`Cl.Cl.O=C(CCN1CCN2CCCC2C1)N1c2ccccc2Sc2ccc(Cl)cc21` (centres undefined) [AZACLORZINE HYDROCHLORIDE] was tested, and the Phospholipidosis was “Not Active”.
In the case of `Nc1nc(NC2CC2)c2ncn([C@H]3C=C[C@@H](CO)C3)c2n1` [ABACAVIR], the Phospholipidosis is reported as “Not Active”.
`S=C=Nc1cccc2ccccc12` [1-NAPHTHYLISOTHIOCYANATE] was tested, and the Phospholipidosis was “Not Active”.
`CO[C@H]1/C=C/O[C@@]2(C)Oc3c(C)c(O)c4c(O)c(c(/C=N/N5CCN(C)CC5)c(O)c4c3C2=O)NC(=O)/C(C)=C\C=C\[C@H](C)[C@H](O)[C@@H](C)[C@@H](O)[C@@H](C)[C@H](OC(C)=O)[C@@H]1C` [RIFAMPIN] was tested, and the Phospholipidosis was “Not Active”.
For `C#C[C@]1(O)CC[C@H]2[C@@H]3CCc4cc(O)ccc4[C@H]3CC[C@@]21C` [ETHINYL ESTRADIOL], the Phospholipidosis was “Not Active”.
For `CN(C)C(=N)N=C(N)N` [METFORMIN], the Phospholipidosis was “Not Active”.
For `Cc1cn([C@H]2C[C@H](N=[N+]=[N-])[C@@H](CO)O2)c(=O)[nH]c1=O` [ZIDOVUDINE], the Phospholipidosis was “Not Active”.
With `CC(=O)Oc1ccccc1C(=O)O` [ASPIRIN] the Phospholipidosis was “Not Active”.
In the case of `CNC(=O)Oc1ccc2c(c1)[C@]1(C)CCN(C)[C@@H]1N2C` [PHYSOSTIGMINE], the Phospholipidosis is reported as “Not Active”.
With `CCSCC[C@H](N)C(=O)O` [ETHIONINE] the Phospholipidosis was “Not Active”.
In the case of `CC(C)(Oc1ccc(C2CC2(Cl)Cl)cc1)C(=O)O` (centres undefined) [CIPROFIBRATE], the Phospholipidosis is reported as “Not Active”.
With `C=C1C[C@@H]1C[C@H](N)C(=O)O` the Phospholipidosis was “Not Active”.
For `Cn1nnc2c(C(N)=O)ncn2c1=O` [TEMOZOLOMIDE], the Phospholipidosis was “Not Active”.
In the case of `CC(O)(CS(=O)(=O)c1ccc(F)cc1)C(=O)Nc1ccc(C#N)c(C(F)(F)F)c1` (centres undefined) [BICALUTAMIDE], the Phospholipidosis is reported as “Not Active”.
`N[C@H]1C(O)O[C@H](CO)[C@@H](O)[C@@H]1O` (some centres undefined) [GLUCOSAMINE] was tested, and the Phospholipidosis was “Not Active”.
For `CCCC(CCC)C(=O)[O-].[Na+]` [VALPROATE SODIUM], the Phospholipidosis was “Not Active”.
`CN1C(C(=O)Nc2ccccn2)=C(O)c2ccccc2S1(=O)=O` [PIROXICAM] was tested, and the Phospholipidosis was “Not Active”.
